The test system of experiment [1] is IL-17 production by CD4 T cells. Kind of experiment: Human Th17 assay (IL-17 production by CD4 T cells under Th17 differentiation conditions). The experiment is classed as cell-based. As to conditions: Homo sapiens, CD4+ T, 72 h, IL-17 in supernatant after 3 days. In a few lines: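 Primary CD4+ T cells from healthy-donor PBMC, preincubated 1 h with titrated compound (0.2% DMSO), then activated with anti-CD3/CD28 beads plus anti-IL4, anti-IFNγ, IL1β, IL23, IL6, TGFβ and IL2.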

For experiment [2], the target named is T1, human RORγt ligand binding domain (RORγt LBD) (Homo sapiens, UniProt P51449).
T1 construct: His-tag (N); TurboTEV protease cleavage site (ENLYFQG) (N); made in house; host or cells: E. coli (pHIS1, modified pET vector)
T1 sequence (P51449 with tags, fused parts or gaps): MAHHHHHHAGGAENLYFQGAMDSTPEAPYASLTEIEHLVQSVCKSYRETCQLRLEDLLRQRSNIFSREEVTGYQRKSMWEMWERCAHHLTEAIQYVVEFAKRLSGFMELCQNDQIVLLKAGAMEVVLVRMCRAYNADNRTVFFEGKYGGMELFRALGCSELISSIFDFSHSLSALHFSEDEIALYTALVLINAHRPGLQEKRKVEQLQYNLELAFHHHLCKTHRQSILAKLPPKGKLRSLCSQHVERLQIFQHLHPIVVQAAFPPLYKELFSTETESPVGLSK
As to the kind of experiment: RORγt ThermoFluor assay (thermal shift, ligand binding affinity). As to conditions: estimated from concentration response of thermal shift. In a few lines:
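Thermal shift of 0.065 mg/mL RORγt with 60 μM 1,8-ANS in 100 mM Hepes pH 7.0, 10 mM NaCl, 2.5 mM GSH, 0.002% Tween-20. Compounds in 1:2 series from 10 mM DMSO stock. Dye fluorescence (500 nm emission) tracked versus temperature; ΔTm used to derive KD.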

The target in the next experiment is T2, human RORγt LBD (Homo sapiens, UniProt P51449).
T2 construct: expressed in transfected cells
T2 sequence (P51449 258-518): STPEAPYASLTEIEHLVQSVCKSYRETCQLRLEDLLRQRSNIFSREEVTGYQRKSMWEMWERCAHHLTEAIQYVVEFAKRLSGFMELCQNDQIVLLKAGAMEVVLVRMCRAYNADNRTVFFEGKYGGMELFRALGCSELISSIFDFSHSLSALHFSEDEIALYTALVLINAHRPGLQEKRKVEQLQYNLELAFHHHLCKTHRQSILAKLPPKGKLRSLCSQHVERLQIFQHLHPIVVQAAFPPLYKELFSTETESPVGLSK
As to the kind of experiment: RORγt reporter assay (GAL4-RORγt LBD luciferase in HEK293T cells). As to conditions: for pIC50: HEK293T cells, 24 hours compound treatment; for inhibition at 6 µM: HEK-293T, read-out: RORγt reporter Assay, % inhibition @ 6 μM, HEK293T cells, 6 μM compound. The experiment is classed as cell-based. In a few lines: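 HEK293T cells transiently co-transfected with pBIND (GAL4 DBD fused to wild-type human RORγt LBD, plus SV40-driven renilla luciferase) and pGL4.31 GAL4-responsive firefly luciferase reporter. Plated in phenol-red-free DMEM with 5% lipid-reduced FCS and treated with compound for 24 h. Firefly/renilla luminescence ratio plotted against compound concentration.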
For orientation: Reporter assays use an easily measured gene product as a stand-in for the process of interest.

The values that follow come from patent US9309222B2, “Phenyl linked quinolinyl modulators of RORγt” (Janssen Pharmaceutica NV, priority 2012, dated 2016).

pIC50, pKd: −log10 of the molar value. Where “and” joins values, the source holds several entries; their conditions need not be identical. Equal values may be shown once. Where a name gives a salt, the structure may show the parent alone.

`CN(C)c1nc2ccc(C(O)(c3cccnc3)c3cncn3C)cc2c(Cl)c1-c1ccccc1` (centres unmarked) [Example 34, [4-Chloro-2-(dimethylamino)-3-phenylquinolin-6-yl](1-methyl-1H-imidazol-5-yl)pyridin-3-ylmethanol•TFA] showed a pIC50 in experiment [1] of 6.85. Moreover, the pKd in experiment [2] was 7.48. Besides, at human RORγt LBD, the negative-log IC50 (pIC50) is 7.33 and > 7.30; the inhibition at 6 µM was 100%.

With `CN(C)c1c(-c2ccccc2)c(Cl)nc2ccc(C(O)(c3cccnc3)c3cncn3C)cc12` (centres unmarked) [Example 35, [2-Chloro-4-(dimethylamino)-3-phenylquinolin-6-yl](1-methyl-1H-imidazol-5-yl)pyridin-3-ylmethanol•TFA], the pIC50 was 6.11 in experiment [1] and 6.47 against human RORγt LBD. For the same compound, in experiment [2], the pKd is 6.48. The inhibition at 6 µM on human RORγt LBD was determined as 97%.

As to `CN(C)c1nc2ccc(C(O)(c3ccccn3)c3cncn3C)cc2c(Cl)c1-c1ccccc1` (centres unmarked) [Example 36, [4-Chloro-2-(dimethylamino)-3-phenylquinolin-6-yl](1-methyl-1H-imidazol-5-yl)pyridin-2-ylmethanol•TFA], the negative-log IC50 (pIC50) in experiment [1] is 5.80. For the same compound, in experiment [2], the negative-log Kd (pKd) was 5.70. For the same compound, at human RORγt LBD, the pIC50 was 6.54 and the inhibition at 6 µM came to 98%.

As for `CN(C)c1nc2ccc(C(O)(c3ccncc3)c3ccncc3)cc2c(Cl)c1-c1ccccc1` [Example 37, [4-Chloro-2-(dimethylamino)-3-phenylquinolin-6-yl](dipyridin-4-yl)methanol•TFA], the negative logarithm of the IC50 (pIC50) in experiment [1] was approximately 6.00. In experiment [2], the pKd was 6.70. In addition, at human RORγt LBD, the pIC50 was 6.72 and the inhibition at 6 µM amounted to 91%.

In experiment [1], `CN(C)c1nc2ccc(C(O)(c3ccc(F)cc3)c3cccnc3)cc2c(Cl)c1-c1ccccc1` (centres unmarked) [Example 38, [4-Chloro-2-(dimethylamino)-3-phenylquinolin-6-yl](4-fluorophenyl)pyridin-3-ylmethanol•TFA] gave a negative logarithm of the IC50 (pIC50) of 6.57. Also, the negative logarithm of the Kd (pKd) in experiment [2] was 7.43. For the same compound, at human RORγt LBD, the pIC50 was 6.96 and > 7.30; the inhibition at 6 µM is 98%.

`CN(C)c1nc2ccc(C(O)(c3cccnc3)c3cccnc3)cc2c(Cl)c1-c1ccccc1` [Example 40, [4-Chloro-2-(dimethylamino)-3-phenylquinolin-6-yl](dipyridin-3-yl)methanol•TFA]: the negative logarithm of the IC50 (pIC50) in experiment [1] was 7.25. Also, in experiment [2], the pKd is 7.74. At human RORγt LBD, the negative logarithm of the IC50 (pIC50) was 7.33 and > 7.30; the inhibition at 6 µM came to 100%.

In experiment [1], `CN(C)c1nc2ccc(C(O)(c3cccnc3)c3cccc(Cl)c3)cc2c(Cl)c1-c1ccccc1` (centres unmarked) [Example 41, [4-Chloro-2-(dimethylamino)-3-phenylquinolin-6-yl](3-chlorophenyl)pyridin-3-ylmethanol•TFA] showed a negative-log IC50 (pIC50) of 6.70. Moreover, the pKd in experiment [2] is 7.64. At human RORγt LBD, the pIC50 was 6.96 and ~7.00; the inhibition at 6 µM came out at 98%.

Consider `CN(C)c1nc2ccc(C(O)(c3cccnc3)c3ccccc3Cl)cc2c(Cl)c1-c1ccccc1` (centres unmarked) [Example 44, [4-Chloro-2-(dimethylamino)-3-phenylquinolin-6-yl](2-chlorophenyl)pyridin-3-ylmethanol•TFA], for which the negative-log IC50 (pIC50) in experiment [1] is 6.26. Further, the pKd in experiment [2] was 6.48. Also, on human RORγt LBD, the pIC50 was 6.77 and the inhibition at 6 µM came out at 97%.

Turning to `CCN(C)c1nc2ccc(C(O)(c3ccncc3)c3cncn3C)cc2c(Cl)c1-c1ccccc1` (centres unmarked) [Example 50, {4-Chloro-2-[ethyl(methyl)amino]-3-phenylquinolin-6-yl}(1-methyl-1H-imidazol-5-yl)pyridin-4-ylmethanol•TFA], the pIC50 in experiment [1] is 7.44. Moreover, the pKd in experiment [2] was 8.30. Besides, on human RORγt LBD, the pIC50 is 8.15 and ~8.05 and > 7.30; the inhibition at 6 µM was found to be 105%.

As to `COc1cccc(C(O)(c2cccnc2)c2ccc3nc(Cl)c(-c4ccccc4)c(Cl)c3c2)c1` (centres unmarked) [Example 54, (2,4-Dichloro-3-phenylquinolin-6-yl)(3-methoxyphenyl)pyridin-3-ylmethanol], the pIC50 was 6.44 in experiment [1] and 6.82 against human RORγt LBD. In experiment [2], the pKd was 7.41. The inhibition at 6 µM on human RORγt LBD stood at 97%.

Regarding `OC(c1ccc(Cl)nc1)(c1cccc(Cl)c1)c1ccc2nc(Cl)c(-c3ccccc3)c(Cl)c2c1` (centres unmarked) [Example 56, (3-Chlorophenyl)(6-chloropyridin-3-yl)(2,4-dichloro-3-phenylquinolin-6-yl)methanol], the negative logarithm of the IC50 (pIC50) in experiment [1] is 6.62. Also, the negative logarithm of the Kd (pKd) in experiment [2] is 7.40. Also, on human RORγt LBD, the pIC50 was 6.77 and the inhibition at 6 µM was 91%.

The compound `OC(c1ccc(Cl)nc1)(c1cccc(F)c1)c1ccc2nc(Cl)c(-c3ccccc3)c(Cl)c2c1` (centres unmarked) [Example 57, (6-Chloropyridin-3-yl)(2,4-dichloro-3-phenylquinolin-6-yl)(3-fluorophenyl)methanol] showed a pIC50 in experiment [1] of 6.55. Also, the negative-log Kd (pKd) in experiment [2] was 7.26. In addition, at human RORγt LBD, the negative logarithm of the IC50 (pIC50) is 6.80 and the inhibition at 6 µM came to 90%.

With `COc1ccc(C(O)(c2cccnc2)c2ccc3nc(N(C)C)c(-c4ccccc4)c(Cl)c3c2)cc1` (centres unmarked) [Example 62, [4-Chloro-2-(dimethylamino)-3-phenylquinolin-6-yl](4-methoxyphenyl)pyridin-3-ylmethanol•TFA], the pIC50 in experiment [1] was 6.15. Also, in experiment [2], the pKd is 6.38. In addition, at human RORγt LBD, the negative-log IC50 (pIC50) is 6.60 and the inhibition at 6 µM was determined as 98%.

On to `COCCN(C)c1nc2ccc(C(O)(c3ccncc3)c3cncn3C)cc2c(Cl)c1-c1ccccc1` (centres unmarked) [Example 63, {4-Chloro-2-[(2-methoxyethyl)(methyl)amino]-3-phenylquinolin-6-yl}(1-methyl-1H-imidazol-5-yl)pyridin-4-ylmethanol•TFA], for which the negative logarithm of the IC50 (pIC50) in experiment [1] is 7.20. Also, the pKd in experiment [2] was 7.82. Also, at human RORγt LBD, the pIC50 is 8.07 and the inhibition at 6 µM was 106%.

In experiment [1], `COc1cccc(C(O)(c2ccc(Cl)nc2)c2ccc3nc(Cl)c(-c4ccccc4)c(Cl)c3c2)c1` (centres unmarked) [Example 65, (6-Chloropyridin-3-yl)(2,4-dichloro-3-phenylquinolin-6-yl)(3-methoxyphenyl)methanol] gave a pIC50 of 6.72. For the same compound, the pKd in experiment [2] was 6.70. Further, at human RORγt LBD, the pIC50 was 6.80 and the inhibition at 6 µM amounted to 103%.

`Cn1cncc1C(O)(c1ccnc(Cl)c1)c1ccc2nc(Cl)c(-c3ccccc3)c(Cl)c2c1` (centres unmarked) [Example 66, (2-Chloropyridin-4-yl)(2,4-dichloro-3-phenylquinolin-6-yl)(1-methyl-1H-imidazol-5-yl)methanol•TFA]: the negative-log IC50 (pIC50) in experiment [1] is 7.23; against human RORγt LBD, 8.00. In experiment [2], the negative logarithm of the Kd (pKd) was 8.77. For the same compound, at human RORγt LBD, the inhibition at 6 µM worked out at 105%.

Compound `COc1cc(C(O)(c2ccc3nc(Cl)c(-c4ccccc4)c(Cl)c3c2)c2cncn2C)ccn1` (centres unmarked) [Example 68, (2,4-Dichloro-3-phenylquinolin-6-yl)(2-methoxypyridin-4-yl)(1-methyl-1H-imidazol-5-yl)methanol•TFA] gave a negative logarithm of the IC50 (pIC50) in experiment [1] of 7.32. Besides, the negative logarithm of the Kd (pKd) in experiment [2] was 8.41. On human RORγt LBD, the pIC50 was 8.24 and the inhibition at 6 µM turned out to be 103%.

As to `COc1cccc(C(O)(c2ccc(C)nc2)c2ccc3nc(Cl)c(-c4ccccc4)c(Cl)c3c2)c1` (centres unmarked) [Example 69, (2,4-Dichloro-3-phenylquinolin-6-yl)(3-methoxyphenyl)(6-methylpyridin-3-yl)methanol•TFA], the negative logarithm of the IC50 (pIC50) in experiment [1] was 6.21. Moreover, the negative logarithm of the Kd (pKd) in experiment [2] is 6.52. At human RORγt LBD, the negative-log IC50 (pIC50) was 6.82 and the inhibition at 6 µM is 99%.

Take `Cc1ccc(C(O)(c2cccc(Cl)c2)c2ccc3nc(Cl)c(-c4ccccc4)c(Cl)c3c2)cn1` (centres unmarked) [Example 70, (3-Chlorophenyl)(2,4-dichloro-3-phenylquinolin-6-yl)(6-methylpyridin-3-yl)methanol•TFA]: in experiment [1], the negative-log IC50 (pIC50) was 6.20. For the same compound, in experiment [2], the pKd was 6.11. At human RORγt LBD, the negative logarithm of the IC50 (pIC50) is 7.33 and the inhibition at 6 µM turned out to be 95%.

In turn, `Cc1ccc(C(O)(c2cccc(F)c2)c2ccc3nc(Cl)c(-c4ccccc4)c(Cl)c3c2)cn1` (centres unmarked) [Example 71, (2,4-Dichloro-3-phenylquinolin-6-yl)(3-fluorophenyl)(6-methylpyridin-3-yl)methanol•TFA] had a pIC50 in experiment [1] of 6.16. Further, in experiment [2], the pKd was 6.51. For the same compound, on human RORγt LBD, the pIC50 was 7.09 and the inhibition at 6 µM is 94%.

In general, pIC50 refers to −log10 of the IC50, conventionally taken in molar units. Higher therefore signals a small IC50. In general, pKd refers to the negative decadic logarithm of the Kd, by convention in mol/L. As usually defined, the inhibition is the change of the read-out against control, counted positive when it falls.
